{
  "source": "patent EP1770089A1",
  "about": "“Pyranodibenzofuran derivatives with antifungal and antibacterial activity” (priority 2005, dated 2007)",
  "key": {"Candida albicans": {"test_system": "Candida albicans", "assay": "In vitro activity (MIC99) against Candida albicans", "format": "cell-based", "method": "The antifungal activity of compounds 5, 9, and 11-22 against Candida albicans was analyzed by the measure of the MIC99 concentration (see Table 1). Table 1. In Vitro Activity against Candida albicans of pyranodibenzofuran derivatives"}, "[1]": {"test_system": "Mycobacterium smegmatis mc^2155", "assay": "Mycobacterial growth inhibition in liquid culture (MIC99)", "format": "cell-based", "settings": "Mycolicibacterium smegmatis, MC2155|MC^2155, 48 h; mc2155; two-day's growth at 37°C; 99% decrease vs DMSO control; read-out: MIC99 on M. smegmatis"}, "[2]": {"test_system": "Mycobacterium tuberculosis H37Rv", "assay": "Mycobacterial growth inhibition in liquid culture, CFU plating (MIC99)", "format": "cell-based", "settings": "Mycobacterium tuberculosis, H37RV; for MIC99: 504 h"}, "M. tuberculosis H37Ra": {"test_system": "M. tuberculosis H37Ra", "assay": "Growth inhibition in liquid culture, CFU plating (MIC99)", "format": "cell-based", "settings": "Mycobacterium tuberculosis"}, "M. bovis BCG (Pasteur)": {"test_system": "M. bovis BCG (Pasteur)", "assay": "microbe, parasite or virus in culture", "format": "cell-based", "settings": "Mycobacterium tuberculosis variant bovis BCG"}, "M. microti (MYC-942272)": {"test_system": "M. microti (MYC-942272)", "assay": "Growth inhibition in liquid culture, CFU plating (MIC99)", "format": "cell-based"}, "[3]": {"test_system": "murine bone marrow macrophages infected by M. tuberculosis H37Rv", "assay": "Antibacterial activity on infected bone marrow macrophages (CFU count of lysates)", "format": "cell-based"}, "[4]": {"test_system": "Mycobacterium tuberculosis H37Rv", "design": "species or system C57BL/6 and BalbC mice", "settings": "mouse, in vivo"}, "Pneumococcus pneumoniae": {"test_system": "Pneumococcus pneumoniae", "assay": "Growth inhibition in liquid medium, CFU plating (MIC99)", "format": "cell-based", "settings": "Gram-positive"}, "Corynebacterium jeikeium": {"test_system": "Corynebacterium jeikeium", "assay": "Growth inhibition in liquid medium, CFU plating (MIC99)", "format": "cell-based", "settings": "Actinomycetes", "method": "(§1) To further assess its specificity, effect of compounds 9 and 16 was also assessed in vitro growth in liquid medium on a whole range of bacteria (Corynebacterium jeikeium, Escherichia coli, Enterococcus faecalis, Klebsiella oxytoca, Nocardia asteroides, Staphylococcus aureus, Pseudomonas aeruginosa and Streptomyces). Compounds were solubilized in dimethylsulfoxide (DMSO) and 100 µl of the appropriate dilution were added to a 5 ml culture with predetermined bacterium inoculum. Quantification of the bacteria was carried out by plating on appropriate agar serial 5-fold dilutions in medium, and colony forming units (CFUs) were ascertained after 24 to 48 hours according to the strains. Table 5. Antibacterial activity of compounds 9 and 16 on other bacteria"}, "Enterococcus faecalis": {"test_system": "Enterococcus faecalis", "assay": "Growth inhibition in liquid medium, CFU plating (MIC99)", "format": "cell-based", "settings": "Gram-positive", "method": "as §1"}, "Escherichia coli": {"test_system": "Escherichia coli", "assay": "Growth inhibition in liquid medium, CFU plating (MIC99)", "format": "cell-based", "settings": "Gram-negative", "method": "as §1"}, "Klebsiella oxytoca": {"test_system": "Klebsiella oxytoca", "assay": "Growth inhibition in liquid medium, CFU plating (MIC99)", "format": "cell-based", "settings": "Gram-negative", "method": "as §1"}, "Nocardia asteroides": {"test_system": "Nocardia asteroides", "assay": "Growth inhibition in liquid medium, CFU plating (MIC99)", "format": "cell-based", "settings": "Actinomycetes", "method": "as §1"}, "Pseudomonas aeruginosa": {"test_system": "Pseudomonas aeruginosa", "assay": "Growth inhibition in liquid medium, CFU plating (MIC99)", "format": "cell-based", "settings": "Gram-negative", "method": "as §1"}, "Staphylococcus aureus": {"test_system": "Staphylococcus aureus", "assay": "Growth inhibition in liquid medium, CFU plating (MIC99)", "format": "cell-based", "settings": "Gram-positive", "method": "as §1"}, "Streptomyces Subspec": {"test_system": "Streptomyces Subspec", "assay": "Growth inhibition in liquid medium, CFU plating (MIC99)", "format": "cell-based", "settings": "Actinomycetes", "method": "as §1"}, "L1210 cells": {"test_system": "L1210 cells", "assay": "Cytotoxicity, MTA (Microculture Tetrazolium Assay) test", "format": "cell-based", "settings": "Mus musculus, cytotoxicity on L1210 cells, read-out: IC50", "method": "The cytotoxicity of compounds 5, 9, and 10-21 was determined in L1210 cells using the MTA (Microculture Tetrazolium Assay) test."}, "Macrophages": {"test_system": "Macrophages", "assay": "Cytotoxicity, MTT test", "format": "cell-based", "settings": "cytotoxicity on macrophages", "method": "(§2) The cytotoxicity of compounds 9 and 16 was further assessed in various mammalian cell lines using the MTT test. RAW and A549 cell lines were maintained in RPMI 1640 medium without L-GLU supplemented with 10% Fetal calf serum (FCS), penicillin-streptomycin solution 1 % at 37 °C in air with 5 % CO2. VERO cell lines were maintained in D-MEM medium without L-GLU supplemented with 10% Fetal calf Serum (FCS), penicillin-streptomycin solution 1 % at 37 °C in air with 5 % CO2. Proliferating cells were seeded for 96-well microtitration plates at a density of 5. 10^5 cells/mL which were further incubated for 24 h at 37°C under 5 % CO2 in air before each assay. Various concentrations of solutions of 9 and 16 (10 µl/well) in 1.25 % dimethylsulfoxide (DMSO)) were added and then incubated for 24 hours under the above conditions. At the end of incubation, 20 µl of dimethylthiazolyl diphenyl tetrazolium bromide solution (MTT) (7.5 mg/ml) was then added into each well and further incubated for 4 h at 37°C to allow the formation of formazan. The crystals of formazan were then dissolved with 100 µl of an acidic solution (Sodium dodecyl sulfate (SDS) 10 %, HCl 10 mM). The optical density of each well was measured at 595 nm using a Multiwell plate reader. The values given are the average means of six replicates. The 50 % inhibition concentration was determined by curve fitting."}, "VERO cells": {"test_system": "VERO cells", "assay": "Cytotoxicity, MTT test", "format": "cell-based", "settings": "for IC50: cytotoxicity on VERO cells, MTT, 24 hours", "method": "as §2"}},
  "note": "Like-named read-outs stand apart in the source and are kept apart here.",
  "data": [
    {"smiles": "CC1(C)C=Cc2c(ccc3oc4ccccc4c23)O1", "note": "[Compound 9, 3,3-dimethyl-3H-benzofuro[3,2-f][1]benzopyran]", "values": [
      {"measurement": "MIC99", "setting": "Candida albicans; Candida albicans, > 99 % inhibition of growth, read-out: MIC99 C. albicans", "value": "> 600", "unit": "µg/mL"},
      {"measurement": "MIC99", "setting": "Candida albicans; Fungus, Candida albicans (table of other bacteria), read-out: MIC99", "value": "> 600", "unit": "µg/mL"},
      {"measurement": "MIC99", "setting": "[1]", "value": 5, "unit": "µg/mL"},
      {"measurement": "MIC99", "setting": "[2]; H37Rv, three weeks growth in 7H9, CFU on 7H11, NI = no inhibition at 1 mg/mL, read-out: MIC99 on M. tuberculosis", "value": 5, "unit": "µg/mL"},
      {"measurement": "MIC99", "setting": "[2]; M. tuberculosis H37Rv, three week growth in 7H9/OADC", "value": "< 5", "unit": "µg/mL"},
      {"measurement": "MIC", "setting": "[2]; summary statement, read-out: MIC measured on M. tuberculosis", "value": "< 6.25", "unit": "µg/mL"},
      {"measurement": "MIC99", "setting": "M. tuberculosis H37Ra", "value": 10, "unit": "µg/mL"},
      {"measurement": "MIC99", "setting": "M. bovis BCG (Pasteur)", "value": 10, "unit": "µg/mL"},
      {"measurement": "MIC99", "setting": "M. microti (MYC-942272)", "value": 1, "unit": "µg/mL"},
      {"measurement": "CFU", "setting": "[3]; 5 µg/mL, 24 hours treatment, untreated control 4000 ± 1414", "value": "3000 ± 816"},
      {"measurement": "CFU", "setting": "[3]; 5 µg/mL, 48 hours treatment, untreated control 17500 ± 12583", "value": "2875 ± 250"},
      {"measurement": "reduction of bacterial load", "setting": "[3]; 10µg/mL at 24 hours", "value": 60, "unit": "%"},
      {"measurement": "CFU", "setting": "[3]; 10 µg/mL, 24 hours treatment, untreated control 4000 ± 1414", "value": "1500 ± 577"},
      {"measurement": "CFU", "setting": "[3]; 10 µg/mL, 48 hours treatment, untreated control 17500 ± 12583", "value": "10000 ± 7360"},
      {"measurement": "CFU", "setting": "[3]; 50 µg/mL, 24 hours treatment, untreated control 4000 ± 1414", "value": "1750 ± 1500"},
      {"measurement": "CFU", "setting": "[3]; 50 µg/mL, 48 hours treatment, untreated control 17500 ± 12583", "value": "3800 ± 497"},
      {"measurement": "bacteria detected at 30 days post infection (bacterial load, CFU)", "setting": "[4]", "value": "no bacteria was detected in 2 out of 3 mice"},
      {"measurement": "MIC99", "setting": "Pneumococcus pneumoniae", "value": "> 500", "unit": "µg/mL"},
      {"measurement": "MIC99", "setting": "Corynebacterium jeikeium", "value": "> 150", "unit": "µg/mL"},
      {"measurement": "MIC99", "setting": "Enterococcus faecalis", "value": "> 500", "unit": "µg/mL"},
      {"measurement": "MIC99", "setting": "Escherichia coli", "value": "> 600", "unit": "µg/mL"},
      {"measurement": "MIC99", "setting": "Klebsiella oxytoca", "value": "> 600", "unit": "µg/mL"},
      {"measurement": "MIC99", "setting": "Nocardia asteroides", "value": 12.8, "unit": "µg/mL"},
      {"measurement": "MIC99", "setting": "Pseudomonas aeruginosa", "value": "> 500", "unit": "µg/mL"},
      {"measurement": "MIC99", "setting": "Staphylococcus aureus", "value": "> 100", "unit": "µg/mL"},
      {"measurement": "MIC99", "setting": "Streptomyces Subspec", "value": "> 500", "unit": "µg/mL"},
      {"measurement": "IC50", "setting": "L1210 cells", "value": "> 14", "unit": "µg/mL"},
      {"measurement": "IC50", "setting": "Macrophages; Macrophage, 24 h, read-out: IC50", "value": "> 50", "unit": "µg/mL"},
      {"measurement": "IC50", "setting": "Macrophages; 24 hours", "value": 80, "unit": "µg/mL"},
      {"measurement": "IC50", "setting": "VERO cells; Chlorocebus sabaeus, Vero, 24 h, read-out: IC50", "value": "> 50", "unit": "µg/mL"},
      {"measurement": "IC50", "setting": "VERO cells", "value": 80, "unit": "µg/mL"},
      {"measurement": "Selectivity Index", "setting": "VERO cells; summary statement, cell type not specified", "value": "above 10"}
    ]}
  ]
}
